Patent US11351151B2, “Compound having anticancer activity and preparation method and application” (3D Medicines (Beijing) Co., Ltd., priority 2016, dated 2022)
“And” between values parts separate entries of the source, which are not always exact repeats. Identical values can stand only once.

Experiments:
[1] = test system: 22RV1; assay: Cell proliferation assay (Alamar Blue); type: cell-based; details: Homo sapiens, 144 h; 22RV1 tumor cell line; 6 days
Outline: (§1)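 The compounds were tested over nine concentrations diluted 3.16-fold from a top dose of 30 or 100 μM, added 4 h after seeding log-phase cells at 500–1×10^4 per well. Plates were incubated for 6 days, then AlamarBlue fluorescence was read and IC50 values obtained by nonlinear regression.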

[2] = test system: HUH1; assay: Cell proliferation assay (Alamar Blue); type: cell-based; details: Homo sapiens, HuH-1, 144 h; HUH1 liver cancer cell line; 6 days
Outline: as §1

[3] = test system: JHH1; assay: Cell proliferation assay (Alamar Blue); type: cell-based; details: 144 h; JHH1 liver cancer cell line; 6 days
Outline: as §1

[4] = test system: LC-2-ad; assay: Cell proliferation assay (Alamar Blue); type: cell-based; details: Homo sapiens, 144 h; LC-2-ad tumor cell line; 6 days
Outline: as §1

[5] = test system: MG63; assay: Cell proliferation assay (Alamar Blue); type: cell-based; details: Homo sapiens, MG-63, 144 h; MG63 tumor cell line; 6 days
Outline: as §1

[6] = test system: NCl-H526; assay: Cell proliferation assay (Alamar Blue); type: cell-based; details: 144 h; NCl-H526 tumor cell line; 6 days
Outline: as §1

[7] = test system: SNU886; assay: Cell proliferation assay (Alamar Blue); type: cell-based; details: SNU-886, 144 h; SNU886 liver cancer cell line; 6 days
Outline: as §1

[8] = test system: 54 commercial tumor cell lines; assay: Cell proliferation assay (Alamar Blue), summary over the panel; type: cell-based; details: in almost all tumor cell lines
Protocol: 1. Instruments and Materials • Thermo 311 CO2 incubator; Haier biosafety cabinet; Molecular Devices microplate reader; Xiangyi brand L530 desktop low speed centrifuge; Olympus IX51 inverted fluorescence microscope, DMEM, RPMI 1640, MEM, DMEM/F12 1:1 medium, Fetal bovine serum, 0.25% trypsin solution, phosphate buffer (Thermo Fisher Shanghai Co., Ltd.); sigma dimethyl sulfoxide (DMSO), resazurin; 54 commercial tumor cell lines (including 26 liver cancer cell lines). Experimental drugs: compounds 1-12 and active drug Linifanib; chemotherapeutic drug Doxorubicin (HY-15142; Shanghai Qianyuan Biomedical Technology Co., Ltd.).
2. Experimental Methods • 2.1 Cultivation of different cell lines • 54 cell lines were cultured in a culture medium containing fetal bovine serum and placed in a 5% CO 2 incubator at 37° C. for incubation. The cells were all grown in an adherent state, and the growth was observed under an inverted microscope, and subculture was performed when the cell confluence rate reached 80%-90%. The proportion and quantity of passage were determined by experimental needs. The ratio of subculture of this cell line was generally 1:2^˜1:3. • 2.2 inhibition effect on the proliferation of different tumor cell lines • Cell test: 54 cell lines in logarithmic growth phase were inoculated in 96-well culture plates at 500^˜1×10^4/well (the optimal seeding density of each cell line was determined in pre-experiment), After incubating at 37° C. for 4 h in a 5% CO2 humidification incubator, added 10 μL of compounds 1-12 or Linifanib to each well, and tested 9 drug concentration gradients for each compound (diluted from the highest concentration of the test by 3.16 times). The solubility of each compound was different at a starting concentration of 30 or 100 μM, respectively. The QC reference compound Doxorubicin was added simultaneously to each cell line test, and the final drug concentrations were 10, 3.16, 1, 0.31, 0.1, 0.03, 0.01, 0.003, and 0.001 μM, respectively. In addition, a positive control group (100% inhibition) and a negative control group (0% inhibition) were set at the same time. The drug group was repeated for 2 wells per concentration, and the positive control group and the negative control group were repeated for 6 wells. After the culture was continued for 6 days in the incubator, AlamarBlue test operation was followed; • AlamarBlue test procedure: Incubated with 10 μL of AlamarBlue reagent per well for 1-4 h, shook for 1-2 min, MD microplate reader EX: 560 nm, EM: 590 nm wavelength to measure fluorescence, recorded the results, calculated the cell inhibition rate of the compound of the invention. […]

[9] = Liver homogenate incubation stability study; type: in vitro ADME, SD rat; details: for Residual intermediate: listed as intermediate
Protocol: The purpose of this example was to investigate the stability of the precursor Linifanib-C12-AA5 (compound 8) and the intermediate Linifanib-C12-Asp (compound 12) in plasma, liver homogenate and spleen homogenate (precursor Linifanib-C12-AA5 metabolizes into the intermediates Linifanib-C12-Asp and Linifanib; the intermediate Linifanib-C12-Asp is further metabolized to form Linifanib), and the metabolites were analyzed quantitatively, and the stability of the incubation system was verified with positive drugs, providing references for compound drug evaluation.
Experimental Procedure • 1. Animal blood was collected, blood samples were placed in EDTA anticoagulation tubes, centrifuged at 3000 g for 15 min at 4° C., plasma was separated, and 2 blood samples were mixed in equal volumes; • 2. Weighed and dissolved a certain amount of Linifanib-C12-AA5/Linifanib-C12-Asp in DMSO:MeOH (2:8), prepared 200 μM mother liquor by purity, and added the compound to the plasma to a final concentration of 2 μg/mL. The organic ratio in the system was not more than 0.5%. • 3. Incubated in a 37° C. water bath and set the sampling points to 0, 0.5, 1, 2, 4, 6, and 8 h. At each sampling point, 100 μL of each sample was added to 300 μL of acetonitrile (with internal standard) for precipitation, centrifuged at 12,000 rpm for 5 min, and 200 μL of supernatant was taken for analysis by LC-MS/MS. • 4. Configured the standard curve to quantify Linifanib, Linifanib-C12-Asp and residual Linifanib-C12-AA5. • 2.2 Linifanib-C12-AA5 and Linifanib-C12-Asp liver/spleen homogenate incubation stability study protocol Test animal • Type: SD rat; Quantity: 2 • Sex: Male; Weight: 200-250 g
Experimental Procedure • 1. Biological analysis method: established the biological analysis method of the compound Linifanib-C12-Asp and Linifanib; • 2. Rat liver/spleen was taken on the day of the experiment, two pieces were cut and mixed, and homogenized with 4 volumes (1 g: 4 mL) phosphate buffer (pH 7.4), and the temperature was controlled to not exceed 10° C. in the homogenization process; quantitative detection of protein, and controlled liver and spleen protein concentration. • 3. Added the drug Linifanib-C12-AA5, Linifanib-C12-Asp to the liver/spleen homogenate to a concentration of 1000 ng/mL, the incubation volume was 1 mL, and controlled the concentration of the organic solvent in the incubation system to not exceed 0.5%. • 4. Incubated in a 37° C. water bath and took 100 μL of samples at 0, 0.5, 1, 2, 4, 6, and 8 h, respectively. After pre-processing the samples with a definite method, the LC-MS/MS analysis was carried out. • 5. Prepared a standard curve with blank liver/spleen homogenate to quantify Linifanib-C12-Asp and Linifanib. 3. Stability Study Results

SMILES	IC50 [1] [µM]	IC50 [2] [µM]	IC50 [6] [µM]	IC50 [7] [µM]	IC50 values compared with Linifanib [8]	conversion into Linifanib in liver homogenate ([9]; liver homogenate)	Residual intermediate ([9]; liver homogenate, first experiment, 1000 ng/mL added, 0 h)	Residual intermediate ([9]; liver homogenate, first experiment, 1000 ng/mL added, 0.5 h)	Residual intermediate ([9]; liver homogenate, first experiment, 1000 ng/mL added, 1 h)	Residual intermediate ([9]; liver homogenate, first experiment, 1000 ng/mL added, 2 h)	Residual intermediate ([9]; liver homogenate, first experiment, 1000 ng/mL added, 4 h)	Residual intermediate ([9]; liver homogenate, first experiment, 1000 ng/mL added, 6 h)	Residual intermediate ([9]; liver homogenate, second experiment, 0 h)	Residual intermediate ([9]; liver homogenate, second experiment, 0.5 h)	Residual intermediate ([9]; liver homogenate, second experiment, 6 h)	IC50 [3] [µM]	IC50 [4] [µM]	IC50 [5] [µM]	conversion of prodrug into active drug, liver versus spleen homogenate ([9]; FIG. 5, comparison of liver and spleen homogenate)
Cc1ccc(F)c(NC(=O)Nc2ccc(-c3cccc4c3c(N)nn4C(=O)CCCCCNC(=O)C[C@H](N)C(=O)N[C@@H](CCC(=O)N[C@@H](CCC(=O)N[C@@H](CCC(=O)N[C@@H](CCC(=O)O)C(=O)O)C(=O)O)C(=O)O)C(=O)O)cc2)c1 [Compound 5]	> 100	82.3	> 100	> 100												> 100	51.3	> 100	
Cc1ccc(F)c(NC(=O)Nc2ccc(-c3cccc4c3c(N)nn4C(=O)CCCCCNC(=O)C[C@H](N)C(=O)N[C@@H](CCC(=O)N[C@@H](CCC(=O)N[C@@H](CCC(=O)N[C@@H](CCC(=O)N[C@@H](CCC(=O)N[C@@H](CCC(=O)N[C@@H](CCC(=O)N[C@@H](CCC(=O)N[C@@H](CCC(=O)O)C(=O)O)C(=O)O)C(=O)O)C(=O)O)C(=O)O)C(=O)O)C(=O)O)C(=O)O)C(=O)O)cc2)c1 [Compound 6]	> 100	> 100	> 100	> 100												> 100	67.8	> 100	
Cc1ccc(F)c(NC(=O)Nc2ccc(-c3cccc4c3c(N)nn4C(=O)CCCCCCCCCCCNC(=O)C[C@H](N)C(=O)N[C@@H](CCC(=O)N[C@@H](CCC(=O)N[C@@H](CCC(=O)N[C@@H](CCC(=O)O)C(=O)O)C(=O)O)C(=O)O)C(=O)O)cc2)c1 [Compound 8]	> 100	31.9	100	61												35.4	50.2	37.2	more specifically converted into an active drug in the liver
Cc1ccc(F)c(NC(=O)Nc2ccc(-c3cccc4c3c(N)nn4C(=O)CCCCCCCCCCCNC(=O)C[C@H](N)C(=O)N[C@@H](CCC(=O)N[C@@H](CCC(=O)N[C@@H](CCC(=O)N[C@@H](CCC(=O)N[C@@H](CCC(=O)N[C@@H](CCC(=O)N[C@@H](CCC(=O)N[C@@H](CCC(=O)N[C@@H](CCC(=O)O)C(=O)O)C(=O)O)C(=O)O)C(=O)O)C(=O)O)C(=O)O)C(=O)O)C(=O)O)C(=O)O)cc2)c1 [Compound 9]	> 100	52.4	> 100	> 100												> 100	70.5	> 100	

The next lines start with results.

IC50 [1] [µM]	IC50 [2] [µM]	IC50 [6] [µM]	IC50 [7] [µM]	IC50 values compared with Linifanib [8]	conversion into Linifanib in liver homogenate ([9]; liver homogenate)	Residual intermediate ([9]; liver homogenate, first experiment, 1000 ng/mL added, 0 h)	Residual intermediate ([9]; liver homogenate, first experiment, 1000 ng/mL added, 0.5 h)	Residual intermediate ([9]; liver homogenate, first experiment, 1000 ng/mL added, 1 h)	Residual intermediate ([9]; liver homogenate, first experiment, 1000 ng/mL added, 2 h)	Residual intermediate ([9]; liver homogenate, first experiment, 1000 ng/mL added, 4 h)	Residual intermediate ([9]; liver homogenate, first experiment, 1000 ng/mL added, 6 h)	Residual intermediate ([9]; liver homogenate, second experiment, 0 h)	Residual intermediate ([9]; liver homogenate, second experiment, 0.5 h)	Residual intermediate ([9]; liver homogenate, second experiment, 6 h)	SMILES	IC50 [3] [µM]	IC50 [4] [µM]	IC50 [5] [µM]	conversion of prodrug into active drug, liver versus spleen homogenate ([9]; FIG. 5, comparison of liver and spleen homogenate)
6.69	4.42	6.6	1.47	close to those of Linifanib											Cc1ccc(F)c(NC(=O)Nc2ccc(-c3cccc4c3c(N)nn4C(=O)C[C@H](N)C(=O)N[C@@H](CCC(=O)O)C(=O)O)cc2)c1 [Compound 1]	8.15	8.89	7.69	
> 100	66.8	> 100	96.2												Cc1ccc(F)c(NC(=O)Nc2ccc(-c3cccc4c3c(N)nn4C(=O)CCCCCNC(=O)C[C@H](N)C(=O)N[C@@H](CCC(=O)O)C(=O)O)cc2)c1 [Compound 4]	> 100	36.9	94.5	
> 100	21.2	> 100	22												Cc1ccc(F)c(NC(=O)Nc2ccc(-c3cccc4c3c(N)nn4C(=O)CCCCCCCCCCCNC(=O)C[C@H](N)C(=O)N[C@@H](CCC(=O)O)C(=O)O)cc2)c1 [Compound 7]	> 100	54.3	73	
90.1	50.6	92.4	> 100												Cc1ccc(F)c(NC(=O)Nc2ccc(-c3cccc4c3c(N)nn4C(=O)CCCCCNC(=O)C[C@H](N)C(=O)O)cc2)c1 [Compound 11]	> 100	27.5	77	
> 30	> 30	> 30	> 30		can be rapidly converted into Linifanib	1130 ng/mL and 1260 ng/mL	1000 ng/mL and 970 ng/mL	1130 ng/mL and 946 ng/mL	1000 ng/mL and 602 ng/mL	294 ng/mL and 456 ng/mL	452 ng/mL and 226 ng/mL	649 ng/mL and 634 ng/mL	452 ng/mL and 469 ng/mL	309 ng/mL and 340 ng/mL	Cc1ccc(F)c(NC(=O)Nc2ccc(-c3cccc4c3c(N)nn4C(=O)CCCCCCCCCCCNC(=O)C[C@H](N)C(=O)O)cc2)c1 [Compound 12]	> 30	> 30	> 30	
7.5	3.25	7.8	4.48												Cc1ccc(F)c(NC(=O)Nc2ccc(-c3cccc4[nH]nc(N)c34)cc2)c1 [Linifanib, reference compound]	12.2	4.78	1.78	
